PMC10997755, “Discovery of a small-molecule inhibitor that traps Polθ on DNA and synergizes with PARP inhibitors” (Nature Communications, 2024)
Where “and” joins values, the source holds several entries; their conditions need not be identical. Equal entries are not always repeated.

What was measured:
Polθ-pol = target: T1, Polθ-pol (Homo sapiens, UniProt O75417); experiment: Cy5 fluorescence Polθ-pol DNA synthesis (strand displacement) IC50 assay; type: biochemical; settings: Polθ-pol DNA synthesis, Cy5 fluorescence
T1 construct: purified recombinant human Polθ-pol (comprising amino acid residues 1792–2590); made in house
T1 sequence (O75417 1792-2590): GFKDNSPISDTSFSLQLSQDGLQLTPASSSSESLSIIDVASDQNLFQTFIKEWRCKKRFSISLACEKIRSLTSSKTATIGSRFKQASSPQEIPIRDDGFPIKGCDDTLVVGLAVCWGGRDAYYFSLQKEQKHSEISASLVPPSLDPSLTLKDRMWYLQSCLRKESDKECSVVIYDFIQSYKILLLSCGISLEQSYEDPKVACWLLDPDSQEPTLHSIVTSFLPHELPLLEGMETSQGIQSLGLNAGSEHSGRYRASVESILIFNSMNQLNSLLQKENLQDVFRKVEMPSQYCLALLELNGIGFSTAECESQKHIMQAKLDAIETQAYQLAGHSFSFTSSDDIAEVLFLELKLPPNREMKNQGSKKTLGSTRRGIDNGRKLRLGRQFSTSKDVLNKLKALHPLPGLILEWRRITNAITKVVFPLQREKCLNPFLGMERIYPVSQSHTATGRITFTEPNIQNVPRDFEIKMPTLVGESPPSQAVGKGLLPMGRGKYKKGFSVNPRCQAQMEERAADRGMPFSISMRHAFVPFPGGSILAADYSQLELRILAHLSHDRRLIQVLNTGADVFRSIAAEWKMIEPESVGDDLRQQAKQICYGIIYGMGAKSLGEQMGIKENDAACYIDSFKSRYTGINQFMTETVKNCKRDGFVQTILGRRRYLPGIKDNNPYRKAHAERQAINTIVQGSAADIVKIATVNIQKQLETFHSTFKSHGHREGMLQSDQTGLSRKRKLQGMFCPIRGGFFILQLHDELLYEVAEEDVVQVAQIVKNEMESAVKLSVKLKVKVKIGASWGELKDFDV
Summary of the method: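 Recombinant human Polθ-pol (aa 1792–2590, 5 nM) extends 60 nM Cy5/quencher primer-template with 50 uM dNTPs in 25 mM Tris pH 7.8, 10 mM MgCl2, 2.5% DMSO at 37 °C. After 18 min, stopped with 20 mM EDTA; Cy5 fluorescence read, 7-point series in triplicate, inhibition from the mean.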

LogP = type: physicochemical; settings: method not stated
DLD1 Parental cells = experiment: Clonogenic assay; type: cell-based; settings: for Normalized colonies (0 micro M = 100): per experiment
Summary of the method: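 Colony formation by BRCA-deficient, PALB2-mutant and wild-type cells (300–1000 cells/well) and MEFs (300 cells/well) over 10–12 days, medium changed every 2 days. Colonies fixed, stained with 0.5% crystal violet and counted; IC50 from 3 or more independent experiments.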

DLD1 BRCA2 -/- cells = experiment: Clonogenic assay; type: cell-based; settings: for Average number of colonies counted / Normalized colonies (0 micro M = 100): per experiment
Summary of the method: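 Cells seeded at low density (300–1000 per well, by plate size and genotype), medium changed every 2 days, colonies grown 10–12 days. Fixed in water:ethanol:acetic acid, stained with 0.5% crystal violet, then counted; IC50 from ≥3 independent experiments, mean ± SEM.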

In the case of `CN(C(=O)Oc1c(N2CCN(CCO)C2=O)cc(C(F)(F)F)cc1C(F)(F)F)c1ccc(F)cc1` [RTx-161], the IC50 (Polθ-pol) is reported as 4.1 nM and 4 to 6 nM, the logP (LogP) is reported as 3.6 and the “effect in BRCA2-WT cells” value (DLD1 Parental cells; DLD1, colony survival) is reported as “little to no effect”. The “Normalized colonies, pooled Average of 3 experiments” value (“Normalized colonies, pooled Average” below) (DLD1 Parental cells; RTX-161 0.185 micro M) was 97.5686%, the “Normalized colonies (0 micro M = 100)” value (DLD1 Parental cells; RTX-161 0.185 micro M) was 97.878% and 98.6301% and 96.1977% and the “Normalized colonies, pooled Average” value (DLD1 Parental cells; RTX-161 0.555 micro M) was 95.8582%. For the same compound, the “Normalized colonies (0 micro M = 100)” value (DLD1 Parental cells; RTX-161 0.555 micro M) was 95.8175% and 96.5517% and 95.2055%, the “Normalized colonies, pooled Average” value (DLD1 Parental cells; RTX-161 1.67 micro M) was 94.2875% and the “Normalized colonies (0 micro M = 100)” value (DLD1 Parental cells; RTX-161 1.67 micro M) was 93.5361% and 95.4907% and 93.8356%. The “Normalized colonies, pooled Average” value (DLD1 Parental cells; RTX-161 5 micro M) was 93.9179%, the “Normalized colonies (0 micro M = 100)” value (DLD1 Parental cells; RTX-161 5 micro M) was 93.1559% and 96.817% and 91.7808% and the “Normalized colonies, pooled Average” value (DLD1 Parental cells; RTX-161 15 micro M) was 93.9599%. For the same compound, the “Normalized colonies (0 micro M = 100)” value (DLD1 Parental cells; RTX-161 15 micro M) was 90.8745% and 94.4297% and 96.5753%, the IC50 (DLD1 BRCA2 -/- cells; Homo sapiens, DLD-1, read-out: IC50 clonogenic survival) was roughly 1000 nM and the “Normalized colonies, pooled Average” value (DLD1 BRCA2 -/- cells; RTX-161 0.185 micro M) was 84.318%. The “Average number of colonies counted” value (DLD1 BRCA2 -/- cells; RTX-161 0.185 micro M) was 67.3333 and 120 and 63.3333, the “Normalized colonies (0 micro M = 100)” value (DLD1 BRCA2 -/- cells; RTX-161 0.185 micro M) was 74.5387% and 90.4523% and 87.963% and the “Normalized colonies, pooled Average” value (DLD1 BRCA2 -/- cells; RTX-161 0.555 micro M) was 72.4221%. The “Average number of colonies counted” value (DLD1 BRCA2 -/- cells; RTX-161 0.555 micro M) was 58.6667 and 97.6667 and 56.6667, the “Normalized colonies (0 micro M = 100)” value (DLD1 BRCA2 -/- cells; RTX-161 0.555 micro M) was 64.9446% and 73.6181% and 78.7037% and the “Normalized colonies, pooled Average” value (DLD1 BRCA2 -/- cells; RTX-161 1.67 micro M) was 40.9897%. The “Average number of colonies counted” value (DLD1 BRCA2 -/- cells; RTX-161 1.67 micro M) was 28.3333 and 49.6667 and 39, the “Normalized colonies (0 micro M = 100)” value (DLD1 BRCA2 -/- cells; RTX-161 1.67 micro M) was 31.3653% and 37.4372% and 54.1667% and the “Normalized colonies, pooled Average” value (DLD1 BRCA2 -/- cells; RTX-161 5 micro M) was 19.5991%. The “Average number of colonies counted” value (DLD1 BRCA2 -/- cells; RTX-161 5 micro M) was 11.6667 and 20.3333 and 22, the “Normalized colonies, pooled Average” value (DLD1 BRCA2 -/- cells; RTX-161 15 micro M) was 11.8019% and the “selective killing / synthetic lethality in BRCA2-null DLD1 cells” value (DLD1 BRCA2 -/- cells; colony survival, versus BRCA2-WT) was “selective killing”.
